Results taken from ChEMBL document CHEMBL1126187, “New bronchodilators. 3. Imidazo[4,5-c][1,8]naphthyridin-4(5H)-ones” (J Med Chem, 1992).

Experiments:
[1] = organism: Cavia porcellus; assay: Schultz-Dale (SD) reaction in tracheal strip isolated from passively sensitized guinea pigs; format: functional
[2] = tested on: Cavia porcellus; assay: Mean collapse time in antigen induced bronchospasm in passively sensitized guinea pigs at 10 mg/kg peroral dose; format: functional; details: route oral
[3] = tested on: Mus musculus; assay: Acute lethal toxicity in mice on peroral administration.; format: organism-based; details: in vivo, po
[4] = target: Phosphodiesterase 4 (Canis familiaris); assay: Inhibition of Canine Tracheal Smooth Muscle PDE 4
[5] = tested on: Cavia porcellus; assay: Mean collapse time in antigen induced bronchospasm in passively sensitized guinea pigs at 0.1 mg/kg peroral dose; format: functional; details: route oral
[6] = tested on: Cavia porcellus; assay: Mean collapse time in antigen induced bronchospasm in passively sensitized guinea pigs at 0.50 mg/kg peroral dose; format: functional; details: dose 0.5 mg/kg; route oral
[7] = tested on: Cavia porcellus; assay: Mean collapse time in antigen induced bronchospasm in passively sensitized guinea pigs at 1 mg/kg peroral dose; format: functional; details: route oral
[8] = tested on: Cavia porcellus; assay: Mean collapse time in antigen induced bronchospasm in passively sensitized guinea pigs at 50 mg/kg peroral dose; format: functional; details: route oral
[9] = tested on: Cavia porcellus; assay: Mean collapse time in antigen induced bronchospasm in passively sensitized guinea pigs at 5 mg/kg peroral dose; format: functional; details: route oral
[10] = organism: Cavia porcellus; assay: Effect on LTD4 induced contraction of guinea pig tracheal strips; format: functional; details: Trachea
[11] = organism: Cavia porcellus; assay: Effect on carbachol induced contraction of guinea pig tracheal strips; format: functional; details: Trachea
[12] = organism: Cavia porcellus; assay: Effect on histamine induced contraction of guinea pig tracheal strips; format: functional; details: Trachea
[13] = target: Phosphodiesterase 4 (Canis familiaris); assay: Inhibition of Canine Tracheal Smooth Muscle PDE 4; remark: listed apart in the source
[14] = tested on: Cavia porcellus; assay: Mean collapse time in antigen induced bronchospasm in passively sensitized guinea pigs at 25 mg/kg peroral dose; format: functional; details: route oral

Molecule `Cn1cnc2c(=O)n(-c3ccccc3)c3ncccc3c21` has an IC50 [1] of over 30 µM.
`Oc1c2ncnc-2c2ccccc2n1-c1ccccc1` showed an IC50 [1] of over 30 µM.
Work on `CCCCn1c(=O)c2c(ncn2C)c2cccnc21` yielded an MCT [2] of 215 s, an IC50 [1] of 3.57 µM and an MLD [3] of 200 mg/kg. For the same molecule, the IC50 [4] was 3.6 µM.
`COc1cccc(-n2c(O)c3ncnc-3c3cccnc32)c1` showed an IC50 [1] of over 30 µM.
In the case of `Oc1c2ncnc-2c2cccnc2n1-c1cccc(Cl)c1`, the IC50 [1] is reported as over 30 µM.
Work on `CCOC(=O)c1ccc(-n2c(O)c3ncnc-3c3cccnc32)cc1` yielded an IC50 [1] of over 30 µM.
`Oc1c2nnnc-2c2cccnc2n1-c1ccccc1` was tested, and the IC50 [1] was over 30 µM.
Work on `Oc1c2nc(-c3ccccc3)nc-2c2cccnc2n1-c1ccccc1` yielded an IC50 [1] of over 30 µM.
With `CCN(CC)CCCn1cnc2c3cccnc3n(-c3ccccc3)c(=O)c21` the IC50 [1] was over 30 µM.
Molecule `O=c1c2c(ncn2CCCN2CCOCC2)c2cccnc2n1-c1ccccc1` has an IC50 [1] of over 30 µM.
For `CCn1cnc2c3cccnc3n(-c3ccccc3)c(=O)c21`, the IC50 [1] was 0.47 µM, the MLD [3] was 100 mg/kg and the IC50 [4] was 2 µM.
Work on `Cn1cnc2c3cccnc3n(-c3ccccc3)c(=O)c21` yielded an MCT [2] of 543 s, an IC50 [1] of 0.22 µM and an MLD [3] of 100 mg/kg. For the same molecule, the IC50 [4] was 6.6 µM.
With `CC(C)n1cnc2c3cccnc3n(-c3ccccc3)c(=O)c21` the IC50 [1] was 4.98 µM, the MLD [3] was 200 mg/kg and the IC50 [4] was 2.5 µM.
Work on `CC(C)Cn1cnc2c3cccnc3n(-c3ccccc3)c(=O)c21` yielded an MCT [2] of 551 s, an IC50 [1] of 6.78 µM and an MLD [3] of 300 mg/kg. The IC50 [4] was 0.15 µM.
Molecule `CCCCn1c(=O)c2ncn(C)c2c2cccnc21` has an MCT [2] of 335 s, an IC50 [1] of 13 µM and an MLD [3] of 300 mg/kg.
`Cc1cccc(-n2c(O)c3ncnc-3c3cccnc32)c1` gave an IC50 [1] of over 30 µM.
In the case of `Cc1ccc(-n2c(O)c3ncnc-3c3cccnc32)cc1`, the IC50 [1] is reported as over 30 µM.
With `CCOC(=O)c1cccc(-n2c(O)c3ncnc-3c3cccnc32)c1` the IC50 [1] was over 30 µM.
For `CCCCn1c(O)c2ncnc-2c2cccnc21`, the IC50 [1] was over 30 µM.
Molecule `Cc1nc2c(O)n(-c3ccccc3)c3ncccc3c-2n1` has an IC50 [1] of over 30 µM.
`COc1ccc(-n2c(O)c3ncnc-3c3cccnc32)cc1` showed an IC50 [1] of over 30 µM.
For `O=C(O)Cn1cnc2c3cccnc3n(-c3ccccc3)c(=O)c21`, the IC50 [1] was over 30 µM.
Molecule `CCCCCCn1cnc2c3cccnc3n(-c3ccccc3)c(=O)c21` has an IC50 [1] of over 30 µM.
`CC(C)n1cnc2c(=O)n(-c3ccccc3)c3ncccc3c21` was tested, and the IC50 [1] was over 30 µM.
In the case of `Oc1c2ncnc-2c2cccnc2n1-c1ccccc1`, the MCT [5] is reported as 301 s, the MCT [6] is reported as 410 s and the MCT [7] is reported as 397 s. The MCT [8] was 491 s, the MCT [9] was 483 s and the MCT [2] was 457 s. The IC50 [1] was 2.18 µM, the IC50 [10] was 3.04 µM and the IC50 [11] was 10.2 µM. It also gave an IC50 [12] of 5.72 µM, an MLD [3] of over 300 mg/kg and an IC50 [13] of 12 µM.
`CCCn1cnc2c3cccnc3n(-c3ccccc3)c(=O)c21` showed an MCT [2] of 505 s, an IC50 [1] of 8.3 µM and an MLD [3] of 200 mg/kg. It also gave an IC50 [4] of 0.52 µM.
Molecule `CCCCn1cnc2c3cccnc3n(-c3ccccc3)c(=O)c21` has an IC50 [1] of over 30 µM.
`COc1ccc(C2CNC(=O)C2)cc1OC1CCCC1` (stereo not given) [ROLIPRAM] gave an IC50 [1] of 0.34 µM.
Molecule `Cn1c(=O)c2nc[nH]c2n(C)c1=O.O` [THEOPHYLLINE] has an MCT [14] of 389 s, an MCT [8] of 414 s and an MCT [2] of 343 s.
